{"source": "patent US12648923B2", "about": "“Dietary butyrate and its uses” (SOCIETE DES PRODUITS NESTLE S.A., priority 2019, dated 2026)", "biological_target": "T1, porcine pancreatic lipase (from pancreatin) (Sus scrofa, UniProt P00591)", "T1 construct": "pancreatin (Porcine, USP×8, P7585); purchased Sigma-Aldrich P7585; host or cells: porcine pancreas extract (pancreatin)", "T1 sequence (P00591 1-450)": "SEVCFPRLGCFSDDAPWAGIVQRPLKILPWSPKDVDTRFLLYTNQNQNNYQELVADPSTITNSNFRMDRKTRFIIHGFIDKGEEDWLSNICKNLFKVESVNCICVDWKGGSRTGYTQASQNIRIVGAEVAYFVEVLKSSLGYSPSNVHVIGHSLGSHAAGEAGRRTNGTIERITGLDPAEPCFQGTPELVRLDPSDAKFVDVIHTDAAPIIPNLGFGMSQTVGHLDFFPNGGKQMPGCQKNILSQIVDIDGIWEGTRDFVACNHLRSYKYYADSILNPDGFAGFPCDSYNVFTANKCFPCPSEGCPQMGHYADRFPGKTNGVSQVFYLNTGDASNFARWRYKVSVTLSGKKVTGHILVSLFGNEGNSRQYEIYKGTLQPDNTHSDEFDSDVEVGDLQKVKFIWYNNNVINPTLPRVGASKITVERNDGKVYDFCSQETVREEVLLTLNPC", "T1 sequence (P02703 23-112 partner)": "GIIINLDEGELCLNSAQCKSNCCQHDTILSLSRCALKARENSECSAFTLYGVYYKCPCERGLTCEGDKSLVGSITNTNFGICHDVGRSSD", "test": "In vitro digestion in simulated intestinal fluid (SIF), pH-stat", "format": "in vitro ADME", "conditions": "SIF alone; emulsion with 200 mg fat; pH 6.8, 37° C.", "description": "10 wt % oil in water emulsions stabilised by 0.3 wt % polyoxyethylene sorbitan mono-oleate (Tween® 80) were prepared by mixing the Tween 80 into the oil phase at 40° C., then mixing with the water phase using a magnetic stirrer. An emulsion was then created using a Hielscher UP 400S ultrasonic probe homogeniser equipped with a 5 mm diameter rod-like probe by applying 100% amplitude at 100% cycle for 2 minutes whilst the sample was cooled using ice water.\nThe lipid emulsion (2 mL) containing 200 mg of fat was subjected to gastrointestinal in vitro lipolysis. […]\nThe intestinal digestion step was performed in the pH stat where the pH was kept constant at 6.8 by addition of NaOH (0.05 M). […] During the intestinal phase of digestion, the kinetics of digestion were followed using a pH-stat (TIM856, Radiometer) technique and expressed as titratable acid (rather than fatty acid) that was calculated by the equation: TA=VNaOH×0:05×1000 […]\nSince the digestion of dietary lipids involves lipases of both gastric and intestinal origin, lipid digestibility was assessed using two digestion models i) simulated intestinal fluid (SIF) with porcine pancreatic lipase (PPL) and ii) sequential digestion in simulated gastric fluid (SGF) with rabbit gastric lipase (RGL) followed by simulated intestinal fluid (SIF) with porcine pancreatic lipase (PPL).", "data": [{"smiles": "CCCC(=O)OCC(COC(=O)CCC)OC(=O)CCC", "note": "[tributyrin]", "values": [{"measurement": "initial rate of lipolysis", "value": "223 ± 59", "unit": "µmol/min"}]}]}
